{"source": "patent US20250270180A1", "about": "“MEK INHIBITORS AND THERAPEUTIC USES THEREOF” (Immuneering Corporation, priority 2020, published 2025)", "key": {"[1]": {"experiment": "Microsome stability, beagle dog", "type": "in vitro ADME", "details": "microsomes, 2 μM"}, "[2]": {"experiment": "Plasma stability, CD-1 mouse", "type": "in vitro ADME", "details": "2 μM"}, "CYP450 1A2": {"biological_target": "T1, CYP450 1A2 (Homo sapiens, UniProt P05177)", "T1 sequence (P05177 1-516)": "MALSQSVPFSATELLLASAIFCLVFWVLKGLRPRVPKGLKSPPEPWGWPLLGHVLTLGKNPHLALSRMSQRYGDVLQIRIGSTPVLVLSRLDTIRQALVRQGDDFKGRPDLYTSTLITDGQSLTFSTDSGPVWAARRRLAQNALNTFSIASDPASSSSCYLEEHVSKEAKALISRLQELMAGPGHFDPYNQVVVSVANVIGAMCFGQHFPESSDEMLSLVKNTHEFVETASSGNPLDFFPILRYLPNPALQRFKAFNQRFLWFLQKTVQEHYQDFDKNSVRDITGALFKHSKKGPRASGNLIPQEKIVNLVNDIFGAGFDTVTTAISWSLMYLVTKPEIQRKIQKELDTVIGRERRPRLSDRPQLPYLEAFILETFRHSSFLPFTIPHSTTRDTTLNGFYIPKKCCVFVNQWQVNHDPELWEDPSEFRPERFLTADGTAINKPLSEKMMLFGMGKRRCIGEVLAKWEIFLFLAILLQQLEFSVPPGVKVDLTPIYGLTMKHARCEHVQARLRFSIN", "experiment": "CYP450 panel, 1A2", "type": "in vitro ADME", "details": "10 μM; substrate phenacetin"}, "Plasma stability, human": {"experiment": "Plasma stability, human", "type": "in vitro ADME", "details": "2 μM"}, "CYP450 2C19": {"biological_target": "CYP450 2C19 (Homo sapiens, UniProt P33261)", "sequence (P33261 whole entry)": "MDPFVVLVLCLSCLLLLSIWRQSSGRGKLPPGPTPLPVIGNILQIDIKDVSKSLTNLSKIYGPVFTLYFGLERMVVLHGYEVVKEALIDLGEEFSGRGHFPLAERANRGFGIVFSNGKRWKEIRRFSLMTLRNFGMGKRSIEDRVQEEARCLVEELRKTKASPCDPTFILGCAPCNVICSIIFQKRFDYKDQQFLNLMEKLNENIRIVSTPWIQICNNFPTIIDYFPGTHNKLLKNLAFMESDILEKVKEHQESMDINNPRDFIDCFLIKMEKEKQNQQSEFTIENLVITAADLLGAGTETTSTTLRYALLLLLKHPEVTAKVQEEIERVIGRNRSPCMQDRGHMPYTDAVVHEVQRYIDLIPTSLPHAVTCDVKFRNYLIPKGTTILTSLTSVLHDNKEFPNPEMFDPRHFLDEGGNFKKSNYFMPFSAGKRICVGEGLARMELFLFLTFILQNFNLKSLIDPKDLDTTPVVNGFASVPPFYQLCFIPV", "experiment": "CYP450 panel, 2C19", "details": "10 μM; substrate mephenytoin"}, "[3]": {"experiment": "Plasma stability, beagle dog", "type": "in vitro ADME", "details": "2 μM"}, "Colon-26 KRAS-G12D tumor": {"system": "Colon-26 KRAS-G12D tumor", "experiment": "Colon-26 model (KRAS G12D CRC): efficacy & safety", "type": "in vivo", "details": "Colon-26 KRAS-G12D in Balb/c", "experimental": "Female athymic BALB/c nude or BALB/c mice (Beijing Vital River Laboratory Animal Technology Co., Ltd.), approximately 8-10 weeks old were used in these studies. Animals were maintained in individually vented cages on a 12-h light-dark cycle. Food and water were available ad libitum. The Colon-26 tumor cells were maintained in vitro with RPMI1640 medium supplemented with 10% fetal bovine serum at 37° C. in an atmosphere of 5% CO2 in air. The cells in exponential growth phase were harvested and quantitated by cell counter before tumor inoculation. Each mouse was inoculated subcutaneously in the right flank region with Colon-26 tumor cells (5×10^5) in 0.1 mL of PBS. Randomization was started when the mean tumor size reached approximately 125 mm3. A total of 84 tumor-bearing mice were enrolled in the study and allocated into 7 treatment groups (12 mice per group). Also 12 non-tumor-bearing mice were assigned as un-treated group.\nAnimals were treated with either vehicle (10% DMSO/90% [20% SBE-β-CD in saline], pH 5) or vehicle containing compounds at the indicated doses by gavage (p.o.) twice daily for approximately 28-42 days (BID x 28-42 p.o.), or to ethical endpoints (BWL>20%; Median Tumor Volume (MTV)>2000 mm3; Individual TV>3000 mm3; clinical signs of unwell). Clinical signs of unwell was characterized, but not limited to the following. Severe dehydration, hypothermia, abnormal/labored respiration, lethargy, obvious pain, diarrhea, skin lesions, neurological symptoms, impaired mobility (not able to eat or drink) due to significant ascites and enlarged abdomen, astasia, continuous prone or lateral position, signs of muscular atrophy, paralytic gait, clonic convulsions, tonic convulsions, persistent bleeding from body orifice. Dosing as well as tumor and body weight measurements were conducted in a Laminar Flow Cabinet.\nAnimals were checked daily for morbidity and mortality. During routine monitoring, the animals were checked for any effects of tumor growth and treatments on behavior such as mobility, food and water consumption, body weight gain/loss (body weights were measured twice per week after randomization), eye/hair matting and any other abnormalities. Mortality and observed clinical signs were recorded for individual animals in detail.\nTumor volumes were measured twice per week after randomization in two dimensions using a caliper, and the volume was expressed in mm3 using the formula: V=(L×W×W)/2, where V is tumor volume, L is tumor length (the longest tumor dimension) and W is tumor width (the longest tumor dimension perpendicular to L). Results were presented as the median tumor volume, expressed in mm3+/−interquartile range, of each group. Tumor Growth Inhibition; TGI %=[1−(Ti/(Ci)]×100; where Ti as the median tumor volume of the treatment group on the measurement day, Ci as the median tumor volume of control group at the measurement day."}, "[4]": {"experiment": "Kinetic solubility (PBS pH 7.4; 4 hr)", "type": "physicochemical", "experimental": "The plates were shaken for 4 h at room temperature in an Eppendorf Thermomixer. After incubation, the plates were centrifuged for 20 minutes at 4680 rpm. From the supernatant, 150 uL was transferred to a new 96 well plate and 50 uL DMSO was added to ensure continued dissolution. Samples were measured on LC-UV at injection volumes of 1 and 8 uL. Peak areas were determined and compared to peak areas obtained using calibration curves of the test compounds in DMSO."}, "[5]": {"experiment": "Microsome stability, human", "type": "in vitro ADME", "details": "microsomes, 2 μM"}, "[6]": {"experiment": "Microsome stability, CD-1 mouse", "details": "microsomes, 2 μM"}, "[7]": {"experiment": "eLogD (lipophilicity; pH 7.4)", "type": "physicochemical", "experimental": "Test compounds were dissolved in DMSO at a concentration of 10 mM and further diluted with methanol: water 1:1. Samples were analyzed using gradient HPLC with three different isocratic mobile phases of 0.25% octanol in methanol (60, 65 and 70%) and 20 mM MOPS buffer (pH 7.4) with decylamine. If needed, (for low ElogDoct compounds) the isocratic mobile phases were adjusted to e.g. 40, 45 and 50% methanol. Peaks were detected using a diode array at absorbance 220-320 nm.\nCapacity factors data (k′ _=(tr−_t0)/t0) obtained at various amounts of methanol were extrapolated to 0% methanol and k′w values are determined using a linear procedure. ElogDoct (7.4) is calculated using a series of reference standards with known Log D values. Each experiment was performed in triplicate."}, "[8]": {"experiment": "Absorption & efflux: Caco-2 permeability", "details": "human"}, "[9]": {"details": "10 mM PBS buffer, aqueous buffer, kinetic from dmso stock"}}, "note": "Read-outs that look alike come from different tables or passages of the source.", "data": [{"compound": "CNS(=O)(=O)Nc1cccc(Cc2c(CN(C)C)c3ccc(OC(=O)N(C)C)cc3oc2=O)c1F", "note": "[Compound 9]", "values": [{"measurement": "Beagle Dog (% Reamining @1 hour)", "setting": "[1]", "result": 76.5, "unit": "%"}, {"measurement": "CD-1 Mouse (% Reamining @2 hour)", "setting": "[2]", "result": 90.6, "unit": "%"}, {"measurement": "1A2*", "setting": "CYP450 1A2", "result": 4.8}, {"measurement": "Human (% Reamining @2 hour)", "setting": "Plasma stability, human", "result": 95.1, "unit": "%"}, {"measurement": "2C19*", "setting": "CYP450 2C19", "result": 8.2}, {"measurement": "Beagle Dog (% Reamining @2 hour)", "setting": "[3]", "result": 96.8, "unit": "%"}, {"measurement": "BWL (Day 14)", "setting": "Colon-26 KRAS-G12D tumor; 150 mg/kg BID po", "result": 0, "unit": "%"}, {"measurement": "BWL (Day 17)", "setting": "Colon-26 KRAS-G12D tumor; 150 mg/kg BID po", "result": 0, "unit": "%"}, {"measurement": "TGI (Day 10)", "setting": "Colon-26 KRAS-G12D tumor; 150 mg/kg BID po", "result": 93.9, "unit": "%"}, {"measurement": "solubility kinetic at 4 h", "setting": "[4]; [9]", "result": "> 80", "unit": "µM"}, {"measurement": "Human (% Reamining @1 hour)", "setting": "[5]", "result": 51.7, "unit": "%"}, {"measurement": "CD-1 Mouse (% Reamining @1 hour)", "setting": "[6]", "result": 54.3, "unit": "%"}, {"measurement": "eLogD (lipophilicity; pH = 7.4)", "setting": "[7]", "result": 3.0}, {"measurement": "Papp B→A at 2 h, 10 μM", "setting": "[8]", "result": 21, "unit": "×10⁻⁶ cm/s"}, {"measurement": "efflux ratio at 2 h, 10 μM", "setting": "[8]", "result": 1.62}, {"measurement": "Papp A→B at 2 h, 10 μM", "setting": "[8]; Caco-2, A-B Permeability Ranking, 10 μM, 2 hrs", "result": "> 1", "unit": "×10⁻⁶ cm/s"}, {"measurement": "Papp A→B at 2 h, 10 μM", "setting": "[8]; Caco-2, Mean Papp A-B (10^−6 cm/s), 10 μM, 2 hrs", "result": 13, "unit": "×10⁻⁶ cm/s"}]}, {"compound": "Cn1cnc2c(F)c(Nc3ccc(Br)cc3Cl)c(C(=O)NOCCO)cc21", "note": "[Reference 1, Selumetinib, reference compound]", "values": [{"measurement": "Beagle Dog (% Reamining @1 hour)", "setting": "[1]", "result": 97.5, "unit": "%"}, {"measurement": "CD-1 Mouse (% Reamining @2 hour)", "setting": "[2]", "result": 104.8, "unit": "%"}, {"measurement": "1A2*", "setting": "CYP450 1A2", "result": 8.3}, {"measurement": "Human (% Reamining @2 hour)", "setting": "Plasma stability, human", "result": 98.1, "unit": "%"}, {"measurement": "2C19*", "setting": "CYP450 2C19", "result": 13.9}, {"measurement": "Beagle Dog (% Reamining @2 hour)", "setting": "[3]", "result": 100.4, "unit": "%"}, {"measurement": "BWL (Day 14)", "setting": "Colon-26 KRAS-G12D tumor; 50 mg/kg BID po", "result": 0, "unit": "%"}, {"measurement": "BWL (Day 17)", "setting": "Colon-26 KRAS-G12D tumor; 50 mg/kg BID po", "result": "−2", "unit": "%"}, {"measurement": "TGI (Day 10)", "setting": "Colon-26 KRAS-G12D tumor; 50 mg/kg BID po", "result": 60.0, "unit": "%"}, {"measurement": "solubility kinetic at 4 h", "setting": "[4]", "result": 36, "unit": "µM"}, {"measurement": "Human (% Reamining @1 hour)", "setting": "[5]", "result": 75.8, "unit": "%"}, {"measurement": "CD-1 Mouse (% Reamining @1 hour)", "setting": "[6]", "result": 13.9, "unit": "%"}, {"measurement": "eLogD (lipophilicity; pH = 7.4)", "setting": "[7]", "result": 3.6}, {"measurement": "Papp A→B at 2 h, 10 μM", "setting": "[8]", "result": "> 1", "unit": "×10⁻⁶ cm/s"}]}, {"compound": "CNS(=O)(=O)Nc1nccc(Cc2c(C)c3ccc(Oc4ncccn4)cc3oc2=O)c1F", "note": "[Reference 2, reference compound]", "values": [{"measurement": "Beagle Dog (% Reamining @1 hour)", "setting": "[1]", "result": 111.6, "unit": "%"}, {"measurement": "CD-1 Mouse (% Reamining @2 hour)", "setting": "[2]", "result": 92.9, "unit": "%"}, {"measurement": "1A2*", "setting": "CYP450 1A2", "result": 0.8}, {"measurement": "Human (% Reamining @2 hour)", "setting": "Plasma stability, human", "result": 91.1, "unit": "%"}, {"measurement": "2C19*", "setting": "CYP450 2C19", "result": "−0.9"}, {"measurement": "Beagle Dog (% Reamining @2 hour)", "setting": "[3]", "result": 99.8, "unit": "%"}, {"measurement": "TGI (Day 10)", "setting": "Colon-26 KRAS-G12D tumor; 50 mg/kg BID po", "result": 61.6, "unit": "%"}, {"measurement": "solubility kinetic at 4 h", "setting": "[4]; [9]", "result": 36, "unit": "µM"}, {"measurement": "Human (% Reamining @1 hour)", "setting": "[5]", "result": 107.1, "unit": "%"}, {"measurement": "CD-1 Mouse (% Reamining @1 hour)", "setting": "[6]", "result": 96.0, "unit": "%"}, {"measurement": "eLogD (lipophilicity; pH = 7.4)", "setting": "[7]", "result": 3.6}, {"measurement": "Papp A→B at 2 h, 10 μM", "setting": "[8]", "result": "> 1", "unit": "×10⁻⁶ cm/s"}]}]}
